Measured values taken from PubChem BioAssay (NCI).
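The compound was tested at five concentrations on cells cultured in 96-well plates, with a 48-hour exposure period. The concentration for 50% growth inhibition is given as GI50. TGI is the concentration that stops growth completely.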

Legend:
Experiment in all cases: DTP human tumour cell line panel, 48 h
M14 melanoma = system: M14 melanoma
DU-145 prostate = system: DU-145 prostate
A498 renal = system: A498 renal
A549 NSCLC = system: A549 NSCLC
HOP-92 NSCLC = system: HOP-92 NSCLC
SK-MEL-28 melanoma = system: SK-MEL-28 melanoma
HOP-62 NSCLC = system: HOP-62 NSCLC
SN12C renal = system: SN12C renal
MCF7 breast = system: MCF7 breast
SW-620 colon = system: SW-620 colon

Structure (SMILES)	GI50 (M14 melanoma)	TGI (M14 melanoma)	GI50 (DU-145 prostate)	TGI (DU-145 prostate)	GI50 (A498 renal)	TGI (A498 renal)	GI50 (A549 NSCLC)	TGI (A549 NSCLC)	GI50 (HOP-92 NSCLC)	TGI (HOP-92 NSCLC)	GI50 (SK-MEL-28 melanoma)	TGI (SK-MEL-28 melanoma)	GI50 (HOP-62 NSCLC)	TGI (HOP-62 NSCLC)	GI50 (SN12C renal)	TGI (SN12C renal)	GI50 (MCF7 breast)	TGI (MCF7 breast)	GI50 (SW-620 colon)	TGI (SW-620 colon)
COc1ccc2c(c1)C(=O)c1c-2c(Nc2ccc(Cl)cc2)nc2ccccc12	31000 nM	> 100 µM	8.49 µM	98.5 µM	5.01 µM	18.9 µM	13300 nM	39.7 µM	11500 nM	39.2 µM	19700 nM	> 100 µM	2860 nM	11.3 µM	17.7 µM	57.1 µM	> 100000 nM	> 100 µM	23800 nM	> 100 µM
Cc1cc(N(CCNc2ccnc3cc(Cl)ccc23)Cc2ccco2)nc(Cl)n1	1600 nM	3.01 µM	1.99 µM	4.15 µM	1.87 µM	4.21 µM	1850 nM	3.42 µM	1470 nM	2.94 µM	1740 nM	3.38 µM	1680 nM	3.38 µM	1.79 µM	3.44 µM	1650 nM	3.32 µM	1750 nM	3.46 µM
CCN(C(=O)c1cc(F)ccc1Oc1cncnc1N1CC2(CCN(CC3CCC(NS(=O)(=O)CC)CC3)CC2)C1)C(C)C (stereo not given)	> 100000 nM	> 100 µM	> 100 µM	> 100 µM	> 100 µM	> 100 µM	> 100000 nM	> 100 µM	> 100000 nM	> 100 µM	> 100000 nM	> 100 µM	> 100000 nM	> 100 µM	> 100 µM	> 100 µM	> 100000 nM	> 100 µM	> 100000 nM	> 100 µM
CCCCCCCCCc1cccc(N2C(N)=NC(N)=NC2(C)C)c1	–	1.53 µM	–	8.4 µM	–	16.7 µM	–	4.26 µM	–	> 100 µM	–	3.44 µM	–	1.24 µM	–	2.33 µM	–	> 100 µM	–	1.63 µM
O=C(Nc1ccccc1)NS(=O)(=O)c1ccc(-n2nc3c(c2-c2ccc(Cl)cc2)Cc2ccccc2-3)cc1	34500 nM	> 100 µM	19.4 µM	47 µM	21.8 µM	66.8 µM	24500 nM	> 100 µM	17100 nM	67 µM	33700 nM	> 100 µM	72000 nM	> 100 µM	23.2 µM	66.6 µM	11200 nM	28.2 µM	23000 nM	55.4 µM
C[C@@H](CO)[C@@H]1CCC=C2CC[C@]3(C)[C@H](CC[C@@H]4[C@@]5(C)CCCNC(C)(C)[C@@H]5CC[C@]43C)[C@H]21	2310 nM	5.13 µM	3.36 µM	11.3 µM	5.41 µM	23 µM	2240 nM	5.04 µM	1870 nM	8.71 µM	1720 nM	3.45 µM	2080 nM	4.21 µM	3.11 µM	12.5 µM	1490 nM	3.02 µM	1860 nM	3.62 µM
O=C(NCc1ccc(Cn2c(=O)sn(-c3ccccc3)c2=O)cc1)OCc1ccc2c(Br)cc(Br)c(O)c2n1	412 nM	1.51 µM	0.992 µM	2.19 µM	1.53 µM	2.9 µM	1510 nM	3.78 µM	379 nM	1.84 µM	1170 nM	2.4 µM	1520 nM	3.45 µM	0.703 µM	2.06 µM	399 nM	1.96 µM	246 nM	0.649 µM
COc1ccc(/C=C2\CCC(CNc3ccc(OC)cc3)C2=O)cc1 (stereo not given)	–	34.9 µM	–	> 65.4 µM	–	> 66 µM	–	> 94.1 µM	–	42.7 µM	–	37.5 µM	–	> 100 µM	–	33.1 µM	–	13.3 µM	–	12.9 µM
CC(=O)O[C@]1(C(C)=O)CC[C@H]2[C@@H]3C=C(C)C4=CC(=O)CC[C@]4(C)[C@H]3CC[C@@]21C	> 85600 nM	> 100 µM	> 100 µM	> 100 µM	> 75.7 µM	> 100 µM	> 78100 nM	> 100 µM	14800 nM	> 100 µM	> 100000 nM	> 100 µM	> 100000 nM	> 100 µM	> 100 µM	> 100 µM	> 100000 nM	> 100 µM	> 100000 nM	> 100 µM
COc1cc(Nc2ccnc(NCCCNc3ccnc4cc(Cl)ccc34)n2)cc(OC)c1	1700 nM	3.46 µM	3.62 µM	12.2 µM	1 µM	2.81 µM	2090 nM	5.46 µM	431 nM	2.69 µM	1660 nM	3.09 µM	1750 nM	5.12 µM	2 µM	7.3 µM	1280 nM	3 µM	1280 nM	2.78 µM
COc1ccc(/C(C#N)=C/c2ccc(OC)c(OC)c2)cc1	–	> 100 µM	–	> 100 µM	–	> 100 µM	–	> 100 µM	–	> 100 µM	–	> 100 µM	–	> 100 µM	–	> 100 µM	–	> 100 µM	–	> 100 µM
